Data as given in patent US11084852B2, “Ubiquitin interacting motif peptides as therapeutics” (OKLAHOMA MEDICAL RESEARCH FOUNDATION, priority 2015, dated 2021).
Positions of bridges follow the written chain, without caps; N, C: chain ends. Non-standard residues stand in square brackets, D forms with d. No end group written: not given here.

Experiments:
[1] = free acid; cited from earlier work
[2] = in vivo; cited from earlier work
ER stress = ER stress and inflammation after IP3R1 downregulation; format: cell-based
Excerpt: FIGS. 22A-D. Downregulation of IP3R1 by epsins augments ER stress-mediated inflammation in Endothelium. (FIG. 22A) Deletion of IP3R1 auguments ER stress mediated by athero-prone substances. (FIG. 22B) Inhibition of ER stress by 4-PBA protected athero-prone substances mediated ER stress due to loss of IP3R1. (FIG. 22C) Loss of epsins auguments NF-kB signaling. (FIG. 22D) NF-kB augmentation can be prevented by ER stress inhibitor 4-PBA.

[3] = HFD-induced obesity model; format: in vivo; conditions: i.p., mice fed HFD
Excerpt: FIGS. 33A-C. […] (FIG. 33A) Male and (FIG. 33B) Female mice, n=8 in each group; P<0.001. (FIG. 33C) Representative image of PBS or AP-UIM peptide administration for 3 months.
The inventors have tested a UIM peptide (AP-UIM) in HFD-induced obesity model.

[4] = test system: Lewis lung carcinoma (LLC) tumors; experiment: Subcutaneous LLC tumor model; set-up: species or system mice; conditions: mouse, in vivo
Excerpt: C56BL/6 mice and TRAMP prostate cancer models were obtained from Jackson Laboratory. SCID/NOD immune-deficient mice were purchased from Charles River Labs (Wilmington, Mass.). WT-Flk, EC-iDKO, EC-iDKO-Flk and EC-iDKO-Notch mice were generated by crossing conditional double knockout mice (EC-iDKO) with Flk-1^fl/fl or NICD^LSL mice as described in (FIGS. 13A-D) (Pasula et al., 2012; Tessneer et al., 2014). All animal protocols have been approved by the IACUC in Oklahoma Medical Research Foundation. Animal tumor models were established as follows: • (1) Subcutaneous Tumor Models (LLC, melanoma B16 and glioma U87/SCID): LLC, melanoma and glioma tumor models were established as previously described (Pasula et al., 2012). Synthetic peptides were administered at 10 mg/kg intravenously every second day beginning after small tumors were established (20-50 mm^3; approximately 12 days post implantation). Tumor volumes were monitored every other day until euthanized following IACUC tumor scoring system. • (2) TRAMP Prostate Tumor Model (Transgenic Adenocarcinoma of Mouse Prostate). […] Mortality rates were recorded. Prostate tumors were analyzed by weighing genitourinary tract (GU), H&E staining, IHC, IF staining and Western blotting as previously described (Pasula et al., 2012; Tessneer et al., 2013). Lymph nodes, lung, liver, spleen and bones were similarly analyzed for metastasis. • (3) B16 Melanoma Metastasis Model. […] Mice were sacrificed after 5 weeks and tissues (including lung, liver and lymph nodes, etc.) were harvested and analyzed for metastasis by gross morphology, H&E, IHC or IF staining, as well as Western blotting. • (4) Orthotopical Glioma Tumor Models (U87/SCID and GL261/C56BL/6). […] Tumors were monitored by MRI as previously described (Pasula et al., 2012). […] Tumor volume was analyzed by MRI every other day until the mice died or were euthanized following IACUC tumor scoring system. Mortality rates were recorded. […]

FGFR1 = target: T1, FGFR1 (Mus musculus, UniProt P16092); experiment: Biochemical pulldown assay using ex vivo tumors; format: binding, mice; conditions: biotinylated peptide, ex vivo tumor lysates
T1 construct: from tissue; host or cells: LLC or GL261 glioma subcutaneous tumors from C57BL/6 mice
T1 sequence (P16092 22-822): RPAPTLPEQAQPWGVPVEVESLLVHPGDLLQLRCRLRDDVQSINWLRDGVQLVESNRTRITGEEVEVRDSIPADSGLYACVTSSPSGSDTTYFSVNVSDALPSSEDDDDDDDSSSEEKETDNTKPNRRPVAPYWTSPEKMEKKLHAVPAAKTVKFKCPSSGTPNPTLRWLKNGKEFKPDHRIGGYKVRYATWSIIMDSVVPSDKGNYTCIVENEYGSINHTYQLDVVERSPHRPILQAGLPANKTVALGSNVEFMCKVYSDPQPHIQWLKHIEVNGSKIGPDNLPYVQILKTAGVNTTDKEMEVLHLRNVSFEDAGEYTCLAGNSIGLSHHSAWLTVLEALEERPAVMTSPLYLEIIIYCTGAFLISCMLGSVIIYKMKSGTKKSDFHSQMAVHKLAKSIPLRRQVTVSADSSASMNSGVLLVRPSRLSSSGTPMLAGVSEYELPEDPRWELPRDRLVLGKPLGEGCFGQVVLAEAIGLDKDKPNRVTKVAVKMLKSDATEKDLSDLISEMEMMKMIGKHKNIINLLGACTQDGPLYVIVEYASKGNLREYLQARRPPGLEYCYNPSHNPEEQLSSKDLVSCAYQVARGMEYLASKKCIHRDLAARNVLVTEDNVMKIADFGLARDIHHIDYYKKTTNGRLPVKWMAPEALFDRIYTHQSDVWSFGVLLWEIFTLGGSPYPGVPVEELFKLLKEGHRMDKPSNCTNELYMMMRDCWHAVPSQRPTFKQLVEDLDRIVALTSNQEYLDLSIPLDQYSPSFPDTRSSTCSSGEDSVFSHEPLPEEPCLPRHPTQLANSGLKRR
Method: (§1) (FIGS. 15A and 15C) LLC (FIG. 15A) or Glioma GL261 (FIG. 15C) subcutaneous tumors removed from C57BL/6 mice were homogenized in lysis buffer containing 50 mM Tris-HCl pH 7.5, 150 mM NaCl, 0.05% NP-40, 10% glycerol, 1× cocktail (Roche) and 20 mM NEM (N-ethylmaleimide). Lysate protein concentration was determined by BCA kit (Pierce). 2 mg of total lysate was co-incubated with 50 μg of either biotinylated UPI peptide, UPI mutant (UPI-Mut) peptide or control peptide. Neutri-Avidin beads (Invitrogen) were then added to pulldown biotinylated UPI or control peptide. These beads were subjected to two washes with lysis buffer and two washes with ½ lysis solutions. Afterwards, beads were boiled in 2× loading buffer and the supernatant was used for Western blot analysis of VEGFR2, PDGFR-β, EGFR and FGFR1; (FIGS. 15B and 15D) Quantification of peptide pulldown of VEGFR2 in LLC (FIG. 15B) and Glioma GL261 (FIG. 15D) tumors, n=5; P values are indicated in the figures.
(§2) LLC or GL261 glioma tumors was homogenized in lysis buffer containing 50 mM Tris-HCl pH7.5, 150 mM NaCl, 0.05% NP-40, 10% Glycerol, 1× cocktail, and 20 mM NEM. Protein concentration was determined by BCA kit (Pierce). 0.5-2 mg lysates were co-incubated with 100 μM biotinylated UPI or control peptides, followed by the addition of Neutri-Avidin beads (Invitrogen) for pulldown binding assay. Beads were washed twice with lysis buffer, then twice with 1:1 lysis buffer PBS. Beads were then boiled for 5 min in 2× sample loading buffer. Denatured proteins were subjected to Western blotting using anti-VEGFR2, anti-EGFR, anti-FGFR1 and anti-PDGFR-β antibodies.

VEGFR2 = target: T2, VEGFR2 (Mus musculus, UniProt P35918); experiment: Biochemical pulldown assay using ex vivo tumors; format: binding, mice; conditions: biotinylated peptide, ex vivo LLC or GL261 tumor lysates
T2 construct: from tissue; host or cells: LLC or GL261 glioma subcutaneous tumors from C57BL/6 mice
T2 sequence (P35918 20-1345): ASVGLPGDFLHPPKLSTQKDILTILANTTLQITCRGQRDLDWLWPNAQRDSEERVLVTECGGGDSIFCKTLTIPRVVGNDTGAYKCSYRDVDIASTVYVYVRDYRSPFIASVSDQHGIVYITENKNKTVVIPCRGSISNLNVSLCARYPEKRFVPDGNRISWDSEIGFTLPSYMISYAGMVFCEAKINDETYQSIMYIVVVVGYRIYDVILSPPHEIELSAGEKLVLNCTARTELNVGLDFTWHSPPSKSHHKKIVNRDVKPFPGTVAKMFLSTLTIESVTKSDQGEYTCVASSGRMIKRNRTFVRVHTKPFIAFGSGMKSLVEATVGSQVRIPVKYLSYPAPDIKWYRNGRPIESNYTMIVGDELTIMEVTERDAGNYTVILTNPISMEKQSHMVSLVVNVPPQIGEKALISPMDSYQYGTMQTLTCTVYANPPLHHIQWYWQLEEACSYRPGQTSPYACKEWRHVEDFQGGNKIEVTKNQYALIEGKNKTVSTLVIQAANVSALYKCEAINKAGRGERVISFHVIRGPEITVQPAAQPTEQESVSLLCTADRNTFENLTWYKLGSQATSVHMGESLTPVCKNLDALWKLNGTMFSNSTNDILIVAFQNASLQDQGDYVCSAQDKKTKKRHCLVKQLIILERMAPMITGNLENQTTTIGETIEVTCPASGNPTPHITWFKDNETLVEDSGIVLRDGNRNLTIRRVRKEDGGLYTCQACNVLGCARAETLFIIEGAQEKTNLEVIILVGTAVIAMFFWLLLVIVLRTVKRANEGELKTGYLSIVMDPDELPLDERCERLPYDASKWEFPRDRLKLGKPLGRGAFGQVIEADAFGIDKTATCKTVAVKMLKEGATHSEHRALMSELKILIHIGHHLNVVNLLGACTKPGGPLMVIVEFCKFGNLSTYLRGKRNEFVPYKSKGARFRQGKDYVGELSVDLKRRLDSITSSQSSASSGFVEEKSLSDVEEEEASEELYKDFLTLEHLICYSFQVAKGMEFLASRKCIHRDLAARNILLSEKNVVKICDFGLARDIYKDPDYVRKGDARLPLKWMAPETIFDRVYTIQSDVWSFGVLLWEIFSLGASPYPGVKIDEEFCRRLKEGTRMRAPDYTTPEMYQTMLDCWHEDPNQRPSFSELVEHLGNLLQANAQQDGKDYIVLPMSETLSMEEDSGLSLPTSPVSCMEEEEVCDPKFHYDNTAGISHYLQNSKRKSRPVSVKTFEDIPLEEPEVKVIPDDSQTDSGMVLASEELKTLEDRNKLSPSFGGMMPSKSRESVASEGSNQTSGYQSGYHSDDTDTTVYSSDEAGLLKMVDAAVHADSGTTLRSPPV
Method: as §1, §2

PDGFR-β = target: T3, PDGFR-β (Mus musculus, UniProt P05622); experiment: Biochemical pulldown assay using ex vivo tumors; format: binding, mice; conditions: biotinylated peptide, ex vivo tumor lysates
T3 construct: from tissue; host or cells: LLC or GL261 glioma subcutaneous tumors from C57BL/6 mice
T3 sequence (P05622 32-1098): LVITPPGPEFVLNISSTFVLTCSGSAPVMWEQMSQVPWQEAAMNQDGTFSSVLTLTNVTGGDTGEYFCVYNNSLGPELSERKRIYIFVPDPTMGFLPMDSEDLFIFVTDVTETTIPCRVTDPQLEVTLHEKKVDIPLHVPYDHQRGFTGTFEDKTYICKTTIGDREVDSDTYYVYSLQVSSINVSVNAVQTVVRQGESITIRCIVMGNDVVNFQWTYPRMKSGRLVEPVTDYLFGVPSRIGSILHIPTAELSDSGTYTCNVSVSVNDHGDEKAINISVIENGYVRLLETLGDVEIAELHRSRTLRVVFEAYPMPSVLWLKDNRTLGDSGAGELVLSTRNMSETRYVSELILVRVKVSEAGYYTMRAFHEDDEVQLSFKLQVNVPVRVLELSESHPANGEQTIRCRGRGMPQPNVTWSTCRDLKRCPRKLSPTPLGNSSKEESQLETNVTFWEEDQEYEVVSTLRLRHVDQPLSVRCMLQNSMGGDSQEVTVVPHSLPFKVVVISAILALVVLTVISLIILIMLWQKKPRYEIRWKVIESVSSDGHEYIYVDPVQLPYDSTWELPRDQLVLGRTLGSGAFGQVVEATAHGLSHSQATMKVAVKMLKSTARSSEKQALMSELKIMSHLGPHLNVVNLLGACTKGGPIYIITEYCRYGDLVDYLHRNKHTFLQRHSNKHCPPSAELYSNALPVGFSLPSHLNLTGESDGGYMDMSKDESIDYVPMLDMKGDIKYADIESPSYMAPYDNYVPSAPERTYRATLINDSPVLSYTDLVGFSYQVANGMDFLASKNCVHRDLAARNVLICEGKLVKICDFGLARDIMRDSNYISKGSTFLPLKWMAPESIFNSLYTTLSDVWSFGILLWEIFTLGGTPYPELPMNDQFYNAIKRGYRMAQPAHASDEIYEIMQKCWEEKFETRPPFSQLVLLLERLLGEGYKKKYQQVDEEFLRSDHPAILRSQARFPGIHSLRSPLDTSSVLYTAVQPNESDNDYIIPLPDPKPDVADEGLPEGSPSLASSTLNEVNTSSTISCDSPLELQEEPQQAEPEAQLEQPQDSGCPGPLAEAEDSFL
Method: as §1, §2

EGFR = target: T4, EGFR (Mus musculus, UniProt Q01279); experiment: Biochemical pulldown assay using ex vivo tumors; format: binding, mice; conditions: biotinylated peptide, ex vivo tumor lysates
T4 construct: from tissue; host or cells: LLC or GL261 glioma subcutaneous tumors from C57BL/6 mice
Method: as §1, §2

In the case of `CC(C)(C)[N+]([O-])=Cc1ccc(S(=O)(=O)O)cc1S(=O)(=O)O` [2,4-ds PBN, 2,4-disulfonyl phenyl-tert-butyl nitrone], the solubility in water [1] is given as “greater than 1 gram/ml”, the “efficacy compared to PBN” value [2] is given as “unexpected increase in efficacy as compared to PBN” and the “toxicity compared to PBN” value [2] is given as “marked and highly significant decrease in toxicity as compared to PBN”.
In the case of `O=C(O)CCCc1ccccc1` [4-PBA], the “ER stress and inflammation” value (ER stress) is reported as “inhibits ER stress and inflammation”.
For “AP-UIM: Antennapedia (penetratin) conjugated to the N-terminus of the epsin UIM peptide, SEQ ID NO: 40 (RQIKIWFQNRRMKWKKSGEEELQLQLALAMSKEE; not fully specified (some residues))”, the body weight gain [3] was “significantly attenuated body weight gain”.
With “UPI-Mut: UPI bearing the Q9A/A13S/K16A triple mutation in the epsin UIM, SEQ ID NO: 43 ([dS]G[dE][dE][dE][dL][dQ][dL][dA][dL][dA][dL][dS][dM][dS][dA][dE][dE][dM]G[dC][dI][dK][dS][dK][dR][dK][dC][dR]G[dD][dK]G[dP][dD][dC]; disulfide 28-36 (inferred); not fully specified)” the “tumor growth in LLC tumor-bearing mice, variant peptides” value [4] was “failed to inhibit tumor growth compared to mice treated with UPI peptide”, the “co-precipitation of FGFR1” value (FGFR1) was “neither UPI nor UPI-Mut peptide pulled down” and the “binding to VEGFR2 in pulldown” value (VEGFR2) was “exhibited reduced binding to VEGFR2”. For the same compound, the “co-precipitation of PDGFR-β” value (PDGFR-β) was “neither UPI nor UPI-Mut peptide pulled down” and the “co-precipitation of EGFR” value (EGFR) was “neither UPI nor UPI-Mut peptide pulled down”.
